Laboratory results published in patent US8609417B2, “Methods and compositions for stem cell cultures” (The Regents of the University of California, priority 2009, dated 2013).

Legend:
hiPS cells [1] = experiment: Clonal assay evaluated by alkaline phosphatase (ALP) assay; assay type: cell-based, human; conditions: single cell per well, Matrigel-coated 96-well plates, blebbistatin 5 μM, 7 days
Description: hES or hiPS cells in mTeSR supplemented with or without blebbistatin were plated on Matrigel-coated 96-well plates at a single cell per well. Seven days after plating, cells were subjected to alkaline phosphatase assay using Alkaline Phosphatase Detection Kit (Millipore) according to the manufacturer's instruction.

Oct3/4 and Nanog = Oct3/4 and Nanog expression by QPCR, Western analysis and immunocytochemistry; assay type: cell-based, human; conditions: hES cells in mTeSR or hESm, different concentrations, 48 h
Description: For immunocytochemistry, cells grown on culture vessels were fixed in 4% paraformaldehyde (USB Corporation). After washing with PBS/BSA, the samples were incubated with primary antibodies recognizing the target proteins at 4° C. overnight. The primary antibodies used in the study include Oct3 (BD Biosciences), myosin IIA (Covance), and myosin IIB (Covance). The samples were washed for three times, and incubated with appropriate secondary antibodies conjugated with Alexa Fluorophore (Invitrogen) at room temperature for 30 min. […]
QPCR. […] The extracted RNA sample was quantified by UV spectrophotometer, and qualified by the RNA Nano Lab chip (Agilent Technologies). […] Each cycle threshold (CT) value was determined by iQ5 optical system software (BioRad), and normalized by the β-actin expression level. […]
Total protein was extracted with RIPA buffer (20 mM Tris-HCl, pH 7.5, 150 mM NaCl, 1 mM Na2EDTA, 1 mM EGTA, 1% NP-40, 1% sodium deoxycholate, 2.5 mM sodium pyrophosphate, 1 mM β-glycerophosphate, 1 mM Na3VO4, and protease inhibitors). Protein concentrations were determined by BCA Protein Assay kit (Pierce). […]

hiPS and hES cells = experiment: Standard G-banded karyotyping; assay type: cell-based, human; conditions: cells grown under blebbistatin/PDL for 20 passages
Description: Standard G-banded karyotyping was carried out for each cell line approximately every 10 to 20 passages.

[2] = tested on: hES or hiPS cells grown under the defined condition; experiment: Teratoma formation in SCID/beige mice; assay type: in vivo, mouse; conditions: cells grown under blebbistatin/PDL for 20 passages, about 2×10^6 cells subcutaneously, 4 to 8 weeks
Excerpt: All animal-related protocols were approved by Institutional Animal Care and Use Committee. Cells (approximately 2×10^6 cells) grown under defined conditions for multiple passages with occasional freezing and thawing were subcutaneously injected into severe combined immunodeficient (SCID)/beige mice (Charles River Laboratories). After 4 to 8 weeks, the developed teratomas were excised, fixed in 4% paraformaldehyde or 10% formalin, and subjected to histological section preparations.

hiPS cells [3] = experiment: Attachment of hiPS cells on poly-D-lysine (PDL) in mTeSR; assay type: cell-based, human; conditions: no signs of defects in cell-cell adhesions
Excerpt: Myosin II controls cell-matrix contacts and detachment-induced apoptosis in hiPS and hiES cells. […] Similar results were obtained from the experiments using hES cells.

hiPS cells [4] = experiment: Cell viability assay under adherence conditions (trypan blue live cell counting); assay type: cell-based, human; conditions: 10 μM, 24 h after plating 1×10^5 cells/well, n=3
Description: hES or hiPS cells were plated at 1×10^5 cells/well on 12-well plates coated with PDL or Matrigel in mTeSR in the presence or absence of blebbistatin or Y-27632 at various concentrations in triplicates. DMSO (solvent for blebbistatin) was also added in the control condition and found to have no effect on viability. For mES cells, cells were plated under the same condition except for the use of gelatin coating and mES medium. After 24 h, cells were harvested, trypsinized to single cells, and counted by hemocytometer. Cell counting was performed independently by two researchers to confirm the consistency. The same samples were used for TUNEL assay immediately after taking a small fraction of the sample for cell counting.

## Cc1ccc2c(c1)C(=O)C1(O)CCN(c3ccccc3)C1=N2 (stereo not shown) [blebbistatin, 1-Phenyl-1,2,3,4-tetrahydro-4-hydroxypyrrolo[2,3-b]-7-methylquinolin-4-one]
hiPS cells [1]
  Cloning efficiency (ratio of wells with an ALP-positive colony to wells seeded): 29±1.8%
Oct3/4 and Nanog
  Oct3/4 and Nanog expression: elevated levels of both transcription factors in a dose dependent manner
hiPS and hES cells
  Karyotype: maintain genomic integrity
[2]
  Teratoma histology: contain all three germ-layer derived differentiated tissues
hiPS cells [3]
  Minimum concentration supporting attachment of hiPS cells on PDL: 2 µM
hiPS cells [4]; hiPS cells on Matrigel coating
  Number of viable cells: 8.6±0.6×10^4 cells
hiPS cells [4]; hiPS cells on PDL
  Number of viable cells: 7.9±0.6×10^4 cells
